Experimental data reported in publication PMC10899177, “Bicarbonate signalling via G protein-coupled receptor regulates ischaemia-reperfusion injury” (Nature Communications, 2024).

Columns and labels:
GPR30 [1] = molecular target: T1, GPR30 (Rattus norvegicus, UniProt O08878)
T1 construct: gene Gper1

GPR30 [2] = molecular target: T2, GPR30 (Danio rerio, UniProt B3G515)
T2 construct: gene gper1

GPR30 [3] = molecular target: T3, GPR30 (Mus musculus, UniProt Q8BMP4); assay: inositol phosphate accumulation in MCF-mGPR30 cells; calcium responses lost in Gpr30-null mural cells; assay type: cell-based
T3 construct: gene Gper1; mGPR30 stably expressed in MCF-7 cells
T3 sequence (Q8BMP4 1-375): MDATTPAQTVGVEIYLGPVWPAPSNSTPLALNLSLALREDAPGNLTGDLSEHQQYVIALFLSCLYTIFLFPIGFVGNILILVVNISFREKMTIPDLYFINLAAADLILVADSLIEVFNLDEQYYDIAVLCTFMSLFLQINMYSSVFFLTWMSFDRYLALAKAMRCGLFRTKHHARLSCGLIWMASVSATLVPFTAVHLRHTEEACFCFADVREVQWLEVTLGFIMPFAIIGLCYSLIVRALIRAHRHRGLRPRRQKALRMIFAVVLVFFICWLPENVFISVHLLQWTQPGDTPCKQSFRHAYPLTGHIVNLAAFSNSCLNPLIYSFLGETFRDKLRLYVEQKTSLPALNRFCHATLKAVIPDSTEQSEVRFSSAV

GPR30 [4] = molecular target: T4, GPR30 (Homo sapiens, UniProt Q99527); assay: scintillation proximity assay with […]C-bicarbonate on membranes; the EC50 is from inositol phosphate accumulation in HEK293 cells; assay type: cell-based
T4 construct: gene GPER1; hGPR30-HA (C-terminal HA tag), plasma membrane fraction of HEK293 cells
T4 sequence (Q99527 whole entry): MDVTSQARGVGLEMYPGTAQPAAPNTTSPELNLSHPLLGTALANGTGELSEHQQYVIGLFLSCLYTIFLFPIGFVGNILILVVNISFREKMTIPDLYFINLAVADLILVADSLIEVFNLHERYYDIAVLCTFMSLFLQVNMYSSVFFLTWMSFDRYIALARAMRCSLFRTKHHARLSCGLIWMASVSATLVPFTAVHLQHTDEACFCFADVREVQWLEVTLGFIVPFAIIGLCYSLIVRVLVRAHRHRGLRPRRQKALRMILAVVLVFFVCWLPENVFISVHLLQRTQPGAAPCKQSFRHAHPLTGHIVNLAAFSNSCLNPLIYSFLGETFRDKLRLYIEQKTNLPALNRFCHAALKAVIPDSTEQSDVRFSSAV

T2 sequence (B3G515 whole entry): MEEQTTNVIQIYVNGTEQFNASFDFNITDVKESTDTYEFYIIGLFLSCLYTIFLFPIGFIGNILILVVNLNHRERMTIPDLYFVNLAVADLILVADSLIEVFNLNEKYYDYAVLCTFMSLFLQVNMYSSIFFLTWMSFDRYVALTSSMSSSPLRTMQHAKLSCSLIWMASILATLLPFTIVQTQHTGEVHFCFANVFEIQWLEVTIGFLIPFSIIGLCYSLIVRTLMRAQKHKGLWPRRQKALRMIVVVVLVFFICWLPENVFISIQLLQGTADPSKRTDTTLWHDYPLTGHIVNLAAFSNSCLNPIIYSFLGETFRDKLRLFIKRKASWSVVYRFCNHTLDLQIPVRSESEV
T1 sequence (O08878 whole entry): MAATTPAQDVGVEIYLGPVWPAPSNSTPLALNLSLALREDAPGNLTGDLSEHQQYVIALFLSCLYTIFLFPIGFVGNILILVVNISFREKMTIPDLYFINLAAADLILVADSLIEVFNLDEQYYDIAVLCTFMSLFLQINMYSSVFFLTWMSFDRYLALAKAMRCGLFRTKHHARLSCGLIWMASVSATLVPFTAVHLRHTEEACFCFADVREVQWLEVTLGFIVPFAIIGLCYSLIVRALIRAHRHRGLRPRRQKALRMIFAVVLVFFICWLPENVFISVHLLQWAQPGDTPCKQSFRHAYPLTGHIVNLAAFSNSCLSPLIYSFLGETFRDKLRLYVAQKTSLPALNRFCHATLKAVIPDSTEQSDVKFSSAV

SMILES: O=C(O)O [bicarbonate]
- cell-based activation assay of expressed receptor (GPR30 [1]): Activation of GPR30 by bicarbonate ions was conserved among various species, including rats
- cell-based activation assay of expressed receptor (GPR30 [2]): Activation of GPR30 by bicarbonate ions was conserved among various species, including rats
- EC50 (GPR30 [3]): 12.2 mM
- EC50 (GPR30 [4]): 11.4 mM
